The results in this text go back to US20230143604A1, “QW DOSING OF GIP RECEPTOR AGONIST PEPTIDE COMPOUNDS AND USES THEREOF” (TAKEDA PHARMACEUTICAL COMPANY LIMITED, priority 2020, published 2023).

Starred links: 1 amine or outer side, 2 acyl side, 3 side chain; linkers in the order of their positions; H or OH if unused. Non-standard residues stand in square brackets, D forms with d. Residues, ends and D or L forms follow the SMILES beside them. Groups on a side chain read outwards from the residue. *: point of attachment. C18 diacid = O=C(O)CCCCCCCCCCCCCCCCC(=O)*; γGlu = O=C(O)[C@H](CCC(=O)[*:2])N[*:1]; NMeY = CN[C@@H](Cc1ccc(O)cc1)C(=O)O; AEEA = NCCOCCOCC(=O)O; Aib = CC(C)(N)C(=O)O

This data set is described as follows: Solubility in phosphate buffer pH 7.4. As to conditions: pH 7.4, aqueous buffer. In a few lines:
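Solubility at pH 7.4 determined by stepwise addition of 200 mM phosphate buffer in 100 μL increments to 3 mg peptide, mixing briefly each time, until no insoluble material remained, then measured by liquid chromatography.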

The mark [1] stands for this setting: pH 7.4 Phosphate Buffer - Solubility, 200 mM Phosphate buffer pH 7.4.

As a reminder, the solubility is the dissolved amount per volume that the medium holds. A higher solubility goes with much dissolved substance. For `CC[C@H](C)[C@H](NC(=O)[C@H](CO)NC(=O)[C@H](Cc1ccc(O)cc1)NC(=O)[C@H](CC(C)C)NC(=O)[C@H](CO)NC(=O)[C@@H](NC(=O)[C@H](Cc1ccccc1)NC(=O)[C@@H](NC(=O)CNC(=O)[C@H](CCC(=O)O)NC(=O)C(C)(C)NC(=O)[C@H](Cc1ccc(O)cc1)NC)[C@@H](C)O)[C@@H](C)CC)C(=O)N[C@@H](C)C(=O)N[C@@H](CC(C)C)C(=O)N[C@@H](CC(=O)O)C(=O)N[C@@H](CCCNC(=N)N)C(=O)N[C@@H](CCCCNC(=O)CNC(=O)CNC(=O)CNC(=O)CNC(=O)CNC(=O)CNC(=O)CCCCCCCCCCCCCCCCC(=O)O)C(=O)N[C@@H](Cc1c[nH]cn1)C(=O)N[C@@H](CCC(N)=O)C(=O)NC(C)(C)C(=O)N[C@@H](CC(N)=O)C(=O)N[C@@H](Cc1ccccc1)C(=O)N[C@H](C(=O)N[C@@H](CC(N)=O)C(=O)N[C@@H](Cc1c[nH]c2ccccc12)C(=O)N[C@@H](CC(C)C)C(=O)N[C@@H](CC(C)C)C(=O)N[C@@H](C)C(=O)N[C@@H](CCC(N)=O)C(=O)N[C@@H](CCCNC(=N)N)C(=O)N1CCC[C@H]1C(=O)N[C@@H](CO)C(=O)N[C@@H](CO)C(=O)NCC(=O)N[C@@H](C)C(=O)N1CCC[C@H]1C(=O)N1CCC[C@H]1C(=O)N1CCC[C@H]1C(=O)N[C@@H](CO)C(=O)N[C@@H](CCCNC(=N)N)C(N)=O)C(C)C` [Compound 277], where the note is “phosphate buffer”, the solubility was less than 15 mg/mL. Under setting [1], `CC[C@H](C)[C@H](NC(=O)[C@H](CO)NC(=O)[C@H](Cc1ccc(O)cc1)NC(=O)[C@H](CC(=O)O)NC(=O)[C@H](CO)NC(=O)[C@@H](NC(=O)[C@H](Cc1ccccc1)NC(=O)[C@@H](NC(=O)CNC(=O)[C@H](CCC(N)=O)NC(=O)C(C)(C)NC(=O)[C@H](Cc1ccc(O)cc1)NC)[C@@H](C)O)[C@@H](C)CC)C(=O)N[C@@H](C)C(=O)N[C@@H](CC(C)C)C(=O)N[C@@H](CC(=O)O)C(=O)N[C@@H](CCCNC(=N)N)C(=O)N[C@@H](CCCCNC(=O)CNC(=O)CNC(=O)CNC(=O)CNC(=O)CNC(=O)CNC(=O)CCCCCCCCCCCCCCCCC(=O)O)C(=O)N[C@@H](Cc1c[nH]cn1)C(=O)N[C@@H](CCC(N)=O)C(=O)NC(C)(C)C(=O)N[C@@H](CC(N)=O)C(=O)N[C@@H](Cc1ccccc1)C(=O)N[C@H](C(=O)N[C@@H](CC(N)=O)C(=O)N[C@@H](Cc1c[nH]c2ccccc12)C(=O)N[C@@H](CC(C)C)C(=O)N[C@@H](CC(C)C)C(=O)N[C@@H](C)C(=O)N[C@@H](CCC(N)=O)C(=O)N[C@@H](CCCNC(=N)N)C(=O)N1CCC[C@H]1C(=O)N[C@@H](CO)C(=O)N[C@@H](CO)C(=O)NCC(=O)N[C@@H](C)C(=O)N1CCC[C@H]1C(=O)N1CCC[C@H]1C(=O)N1CCC[C@H]1C(=O)N[C@@H](CO)C(=O)N[C@@H](CCCNC(=N)N)C(N)=O)C(C)C` [Compound 278] registered a solubility of less than 15 mg/mL.

Consider `CC[C@H](C)[C@H](NC(=O)[C@H](CO)NC(=O)[C@H](Cc1ccc(O)cc1)NC(=O)[C@H](CC(=O)O)NC(=O)[C@H](CO)NC(=O)[C@@H](NC(=O)[C@H](Cc1ccccc1)NC(=O)[C@@H](NC(=O)CNC(=O)[C@H](CCC(=O)O)NC(=O)C(C)(C)NC(=O)[C@H](Cc1ccc(O)cc1)NC)[C@@H](C)O)[C@@H](C)CC)C(=O)N[C@@H](C)C(=O)N[C@@H](CC(C)C)C(=O)N[C@@H](CO)C(=O)N[C@@H](CCCNC(=N)N)C(=O)N[C@@H](CCCCNC(=O)CNC(=O)CNC(=O)CNC(=O)CNC(=O)CNC(=O)CNC(=O)CCCCCCCCCCCCCCCCC(=O)O)C(=O)N[C@@H](Cc1c[nH]cn1)C(=O)N[C@@H](CCC(N)=O)C(=O)NC(C)(C)C(=O)N[C@@H](CC(N)=O)C(=O)N[C@@H](Cc1ccccc1)C(=O)N[C@H](C(=O)N[C@@H](CC(N)=O)C(=O)N[C@@H](Cc1c[nH]c2ccccc12)C(=O)N[C@@H](CC(C)C)C(=O)N[C@@H](CC(C)C)C(=O)N[C@@H](C)C(=O)N[C@@H](CCC(N)=O)C(=O)N[C@@H](CCCNC(=N)N)C(=O)N1CCC[C@H]1C(=O)N[C@@H](CO)C(=O)N[C@@H](CO)C(=O)NCC(=O)N[C@@H](C)C(=O)N1CCC[C@H]1C(=O)N1CCC[C@H]1C(=O)N1CCC[C@H]1C(=O)N[C@@H](CO)C(=O)N[C@@H](CCCNC(=N)N)C(N)=O)C(C)C` [Compound 279], for which, under setting [1], the solubility was less than 15 mg/mL. The compound `CC[C@H](C)[C@H](NC(=O)[C@H](CO)NC(=O)[C@H](Cc1ccc(O)cc1)NC(=O)[C@H](CC(=O)O)NC(=O)[C@H](CO)NC(=O)[C@@H](NC(=O)[C@H](Cc1ccccc1)NC(=O)[C@@H](NC(=O)CNC(=O)[C@H](CCC(=O)O)NC(=O)C(C)(C)NC(=O)[C@H](Cc1ccc(O)cc1)NC)[C@@H](C)O)[C@@H](C)CC)C(=O)N[C@@H](C)C(=O)N[C@@H](CC(C)C)C(=O)N[C@@H](CCCCN)C(=O)N[C@@H](CCCNC(=N)N)C(=O)N[C@@H](CCCCNC(=O)CNC(=O)CNC(=O)CNC(=O)CNC(=O)CNC(=O)CNC(=O)CCCCCCCCCCCCCCCCC(=O)O)C(=O)N[C@@H](Cc1c[nH]cn1)C(=O)N[C@@H](CCC(N)=O)C(=O)NC(C)(C)C(=O)N[C@@H](CC(N)=O)C(=O)N[C@@H](Cc1ccccc1)C(=O)N[C@H](C(=O)N[C@@H](CC(N)=O)C(=O)N[C@@H](Cc1c[nH]c2ccccc12)C(=O)N[C@@H](CC(C)C)C(=O)N[C@@H](CC(C)C)C(=O)N[C@@H](C)C(=O)N[C@@H](CCC(N)=O)C(=O)N[C@@H](CCCNC(=N)N)C(=O)N1CCC[C@H]1C(=O)N[C@@H](CO)C(=O)N[C@@H](CO)C(=O)NCC(=O)N[C@@H](C)C(=O)N1CCC[C@H]1C(=O)N1CCC[C@H]1C(=O)N1CCC[C@H]1C(=O)N[C@@H](CO)C(=O)N[C@@H](CCCNC(=N)N)C(N)=O)C(C)C` [Compound 280] yielded a solubility under setting [1] of less than 15 mg/mL. In turn, `CC[C@H](C)[C@H](NC(=O)[C@H](CO)NC(=O)[C@H](Cc1ccc(O)cc1)NC(=O)[C@H](CC(=O)O)NC(=O)[C@H](CO)NC(=O)[C@@H](NC(=O)[C@H](Cc1ccccc1)NC(=O)[C@@H](NC(=O)CNC(=O)[C@H](CCC(=O)O)NC(=O)C(C)(C)NC(=O)[C@H](Cc1ccc(O)cc1)NC)[C@@H](C)O)[C@@H](C)CC)C(=O)N[C@@H](C)C(=O)N[C@@H](CCCCNC(=O)CNC(=O)CNC(=O)CNC(=O)CNC(=O)CNC(=O)CCCCCCCCCCCCCCCCC(=O)O)C(=O)N[C@@H](CC(=O)O)C(=O)N[C@@H](CCCCN)C(=O)NC(C)(C)C(=O)N[C@@H](Cc1c[nH]cn1)C(=O)N[C@@H](CCC(N)=O)C(=O)NC(C)(C)C(=O)N[C@@H](CC(N)=O)C(=O)N[C@@H](Cc1ccccc1)C(=O)N[C@H](C(=O)N[C@@H](CC(N)=O)C(=O)N[C@@H](Cc1c[nH]c2ccccc12)C(=O)N[C@@H](CC(C)C)C(=O)N[C@@H](CC(C)C)C(=O)N[C@@H](C)C(=O)N[C@@H](CCC(N)=O)C(=O)N[C@@H](CCCCN)C(=O)NCC(=O)N[C@@H](CCCCN)C(=O)N[C@@H](CCCCN)C(=O)N[C@@H](CC(N)=O)C(=O)N[C@@H](CC(N)=O)C(=O)N[C@@H](Cc1c[nH]c2ccccc12)C(=O)N[C@@H](CCCCN)C(=O)N[C@@H](Cc1c[nH]cn1)C(=O)N[C@@H](CC(N)=O)C(N)=O)C(C)C` [Compound 281] yielded a solubility of less than 15 mg/mL. Still for that read-out and setting: the value for `CC[C@H](C)[C@H](NC(=O)[C@H](Cc1ccccc1)NC(=O)[C@@H](NC(=O)CNC(=O)[C@H](CCC(=O)O)NC(=O)C(C)(C)NC(=O)[C@H](Cc1ccc(O)cc1)NC)[C@@H](C)O)C(=O)N[C@@H](CO)C(=O)N[C@@H](CC(=O)O)C(=O)N[C@@H](Cc1ccc(O)cc1)C(=O)N[C@@H](CO)C(=O)N[C@H](C(=O)NC(C)(C)C(=O)N[C@@H](CC(C)C)C(=O)N[C@@H](CC(=O)O)C(=O)N[C@@H](CCCNC(=N)N)C(=O)N[C@@H](CCCCNC(=O)CNC(=O)CNC(=O)CNC(=O)CNC(=O)CNC(=O)CCCCCCCCCCCCCCCCC(=O)O)C(=O)N[C@@H](C)C(=O)N[C@@H](CCC(N)=O)C(=O)NC(C)(C)C(=O)N[C@@H](CC(=O)O)C(=O)N[C@@H](Cc1ccccc1)C(=O)N[C@H](C(=O)N[C@@H](CC(N)=O)C(=O)N[C@@H](Cc1c[nH]c2ccccc12)C(=O)N[C@@H](CC(C)C)C(=O)N[C@@H](CC(C)C)C(=O)N[C@@H](C)C(=O)N[C@@H](CCC(N)=O)C(=O)N[C@@H](CCCNC(=N)N)C(=O)NCC(=O)O)C(C)C)[C@@H](C)CC` [Compound 284] was less than 15 mg/mL; that for `CC[C@H](C)[C@H](NC(=O)[C@H](CCCNC(=N)N)NC(=O)[C@H](CC(=O)O)NC(=O)[C@H](CCCCNC(=O)CNC(=O)CNC(=O)CNC(=O)CNC(=O)CNC(=O)CCCCCCCCCCCCCCCCC(=O)O)NC(=O)[C@H](C)NC(=O)[C@@H](NC(=O)[C@H](CO)NC(=O)[C@H](Cc1ccc(O)cc1)NC(=O)[C@H](CC(=O)O)NC(=O)[C@H](CO)NC(=O)[C@@H](NC(=O)[C@H](Cc1ccccc1)NC(=O)[C@@H](NC(=O)CNC(=O)[C@H](CCC(=O)O)NC(=O)C(C)(C)NC(=O)[C@H](Cc1ccc(O)cc1)NC)[C@@H](C)O)[C@@H](C)CC)[C@@H](C)CC)C(=O)N[C@@H](C)C(=O)N[C@@H](CCC(N)=O)C(=O)N[C@@H](CCC(N)=O)C(=O)N[C@@H](CC(=O)O)C(=O)N[C@@H](Cc1ccccc1)C(=O)N[C@H](C(=O)N[C@@H](CC(N)=O)C(=O)N[C@@H](Cc1c[nH]c2ccccc12)C(=O)N[C@@H](CC(C)C)C(=O)N[C@@H](CC(C)C)C(=O)N[C@@H](C)C(=O)N[C@@H](CCC(N)=O)C(=O)N[C@@H](CCCNC(=N)N)C(=O)N1CCC[C@H]1C(=O)N[C@@H](CO)C(=O)N[C@@H](CO)C(=O)NCC(=O)O)C(C)C` [Compound 285] was less than 6 mg/mL. As for `CC[C@H](C)[C@H](NC(=O)[C@H](CCCNC(=N)N)NC(=O)[C@H](CC(=O)O)NC(=O)[C@H](CC(C)C)NC(=O)[C@H](C)NC(=O)[C@@H](NC(=O)[C@H](CO)NC(=O)[C@H](Cc1ccc(O)cc1)NC(=O)[C@H](CC(=O)O)NC(=O)[C@H](CO)NC(=O)[C@@H](NC(=O)[C@H](Cc1ccccc1)NC(=O)[C@@H](NC(=O)CNC(=O)[C@H](CCC(=O)O)NC(=O)C(C)(C)NC(=O)[C@H](Cc1ccc(O)cc1)NC)[C@@H](C)O)[C@@H](C)CC)[C@@H](C)CC)C(=O)N[C@@H](C)C(=O)N[C@@H](CCC(N)=O)C(=O)N[C@@H](CCC(N)=O)C(=O)N[C@@H](CCCCNC(=O)COCCOCCNC(=O)COCCOCCNC(=O)CC[C@H](NC(=O)CC[C@H](NC(=O)CCCCCCCCCCCCCCCCC(=O)O)C(=O)O)C(=O)O)C(=O)N[C@@H](Cc1ccccc1)C(=O)N[C@H](C(=O)N[C@@H](CC(N)=O)C(=O)N[C@@H](Cc1c[nH]c2ccccc12)C(=O)N[C@@H](CC(C)C)C(=O)N[C@@H](CC(C)C)C(=O)N[C@@H](C)C(=O)N[C@@H](CCC(N)=O)C(=O)N[C@@H](CCCNC(=N)N)C(=O)NCC(=O)O)C(C)C` [Compound 286] (H-[NMeY][Aib]EGTFISDYSIALDRIAQQK([AEEA-AEEA-γGlu-γGlu-C18 diacid])FVNWLLAQRG-OH), the solubility was less than 6 mg/mL.
